Data: PMC6272685, “Docking and Antiherpetic Activity of 2-Aminobenzo[de]-isoquinoline-1,3-diones” (Molecules, 2015)
≈ marks a conversion by molar mass, not a printed value. Entries after “also recorded” stand apart in the source; their conditions may differ.

How the values were obtained:
[1] = test system: HSV-1; experiment: cytopathic effect inhibition assay against HSV-1 in Vero cells; assay type: cell-based, herpes simplex virus 1 (GHSV-UL46); conditions: for HSV-1 EC50: Vero cells, 48 h, cytopathic effect inhibition; for HSV-1 SI: ratio of CC50 to EC50; for activity class in terms of SI-values (HSV-1): virus not named, agrees with HSV-1 SI of Table 2; for antiviral activity against HSV-1 in words: in comparison with compounds 14–16; on activity class in terms of SI-values (HSV-1): key: inactive (SI < 2); active (SI ≥ 2)
Description: (§1) Vero cells (derived from the kidney of a normal African green monkey) were obtained from the American Type Culture Collection (ATCC, Manassas, VA, USA). The viral strains used were GHSV-UL46 for HSV-1 and the G strain for HSV-2. The Vero cells were propagated in Dulbecco’s modified Eagle’s medium (DMEM) supplemented with 10% heat-inactivated foetal bovine serum (FBS), 1% L-glutamine, HEPES buffer and 50 µg/mL gentamycin. All cells were maintained at 37 °C in a humidified atmosphere with 5% CO2 and were subcultured two times a week.
(§2) The antiviral screening was performed using a cytopathic effect inhibition assay at the Regional Center for Mycology and Biotechnology (RCMB, Al-Azhar University, Cairo, Egypt). This assay was selected to show specific inhibition of a biological function, that is, a cytopathic effect in susceptible mammalian cells. In brief, monolayers of 10,000 Vero cells adhering at the bottom of the wells in a 96-well microtiter plate were incubated for 24 h at 37 °C in a humidified incubator with 5% CO2. The plates were washed with fresh DMEM and challenged with 10^4 doses of herpes simplex 1 or 2 virus, and then the cultures were simultaneously treated with two-fold serial dilutions of the tested compound, starting from 500 µg/mL and going up to about 2 µg/mL (500, 250, 125, 62.5, …, 1.95 µg/mL) in a fresh maintenance medium; following this, they were incubated at 37 °C for 48 h. An infection control, as well as an untreated Vero cell control were made in the absence of tested compounds. […] Antiviral activity was determined by the inhibition of the cytopathic effect compared to a control, that is, the protection offered by the tested compound to the cells was scored. Three independent experiments were assessed, each containing four replicates per treatment.
(§3) After the incubation period, the media was aspirated, and then the cells were stained with a 1% crystal violet solution for 30 min. Thereafter, all excess stain was removed by rinsing the plates with tap water. The plates were allowed to dry, and then glacial acetic acid (30%) was added to all wells and mixed thoroughly. The absorbance of the plates was measured after gentle shaking on a microplate reader (Tecan Inc., Morrisville, NC, USA), at 590 nm. The viral inhibition rate was calculated as follows: [(ODtv − ODcv)/(ODcd − ODcv)] × 100% where ODtv, ODcv and ODcd indicate the absorbance of the tested compounds with virus-infected cells, the absorbance of the virus control and the absorbance of the cell control, respectively.
EC50 values were determined directly from the curve obtained by plotting the inhibition of the virus yield against the concentration of the samples. […] This index is referred to as a therapeutic index, and it was also used to determine whether a compound warranted further study.

[2] = test system: HSV-2; experiment: cytopathic effect inhibition assay against HSV-2 in Vero cells; assay type: cell-based, herpes simplex virus 2 (G strain); conditions: for HSV-2 EC50: Vero cells, 48 h, cytopathic effect inhibition; for antiviral activity against HSV-2 in words: in comparison with compounds 14–16; for HSV-2 SI: ratio of CC50 to EC50; on activity class in terms of SI-values (HSV-2): key: inactive (SI < 2); active (SI ≥ 2)
Description: as §1, §2, §3
EC50 values were determined directly from the curve obtained by plotting the inhibition of the virus yield against the concentration of the samples. The selectivity index (SI) was calculated from the ratio of CC50 to EC50 in order to determine whether each compound had sufficient antiviral activity that exceeded its level of toxicity. This index is referred to as a therapeutic index, and it was also used to determine whether a compound warranted further study.

[3] = test system: Vero cells; experiment: cytotoxicity evaluation using viability assay (crystal violet); assay type: cell-based, African green monkey; conditions: 48 h
Description: as §1
The Vero cell lines in the cytotoxicity assay were seeded in 96-well plates at a cell concentration of 1 × 10^4 cells per well in 100 µL of the growth medium. Fresh medium containing different concentrations of the tested sample was added after 24 h of seeding. Serial two-fold dilutions of the tested compound were added to confluent cell monolayers dispensed into 96-well, flat-bottomed microtiter plates (Falcon, Jersey, NJ, USA) using a multichannel pipette. The microtiter plates were incubated at 37 °C in a humidified incubator with 5% CO2 for a period of 48 h. Three wells were used for each concentration of the tested sample. Control cells were incubated without test samples and with or without DMSO. The small percentage of DMSO present in the wells (maximal 0.1%) was not found to affect the experiment.
After the end of the incubation period, the viable cell yield was determined by a colorimetric method. In brief, the process of treatment the media with crystal violet solution and measurement of absorbance at 590 nm using a microplate reader was mentioned above. The absorbance was proportional to the number of surviving cells in the culture plate. All the results were corrected for background absorbance detected in wells without added stain. Treated samples were compared with the cell control in the absence of the tested compounds. All experiments were carried out in triplicate. The cell cytotoxicity effect of each tested compound was calculated.
Statistics were done using a one-way ANOVA test, and the percentage cell viability was calculated using Microsoft Excel®, as follows: % Cell viability = [(Mean Abscontrol− Mean Abstest metabolite)/Mean Abscontrol] × 100 where Abs equals the absorbance at 590 nm. The CC50 was estimated from graphic plots and the STATA statistical analysis package was used for the drawing of the dose response curve, in order to calculate CC50. Concerning antiviral evaluation, all experiments and data analysis were performed in RCMB, Al-Azhar University, Cairo, Egypt.

| SMILES | HSV-1 EC50 [1] [µg/mL] | HSV-2 EC50 [2] [µg/mL] | CC50 [3] [µg/mL] | HSV-1 SI [1] | activity class in terms of SI-values (HSV-1) [1] | antiviral activity against HSV-2 in words [2] | HSV-2 SI [2] | antiviral activity against HSV-1 in words [1] | activity class in terms of SI-values (HSV-2) [2] |
| --- | --- | --- | --- | --- | --- | --- | --- | --- | --- |
| CC=NN1C(=O)c2cccc3cccc(c23)C1=O [Compound 1] | >500 | >500 | 375 ± 25 (≈ 1570 µM) | – | – | – | – | – | – |
| CCC=NN1C(=O)c2cccc3cccc(c23)C1=O [Compound 2] | >500 | >500 | 317 ± 13 (≈ 1260 µM) | – | – | – | – | – | – |
| O=C1c2cccc3cccc(c23)C(=O)N1N=Cc1ccccc1 [Compound 3] | 158 ± 1.8 | >500 | 196 ± 22 (≈ 653 µM) | 1.2 | – | – | – | – | – |
| COc1ccccc1C=NN1C(=O)c2cccc3cccc(c23)C1=O [Compound 4] | 189 ± 3.2 | 312 ± 9.6 | 486 ± 18 (≈ 1470 µM) | 2.6 | active | low activity | 1.6 | – | – |
| COc1cccc(C=NN2C(=O)c3cccc4cccc(c34)C2=O)c1 [Compound 5] | 176 ± 4.6 | >500 | 452 ± 9 (≈ 1370 µM) | 2.6 | active | – | – | low activity | – |
| O=C1c2cccc3cccc(c23)C(=O)N1N=Cc1cccc([N+](=O)[O-])c1 [Compound 6] | 174 ± 1.8 | >500 | 316 ± 11 (≈ 915 µM) | 1.8 | – | – | – | low activity | – |
| O=C1c2cccc3cccc(c23)C(=O)N1N=Cc1ccc(O)cc1 [Compound 7] | 113 ± 4.6 | 220 ± 3.8 | 412 ± 24 (≈ 1300 µM) | 3.6 | active | low activity | 1.9 | good antiviral effect | – |
| CN(C)c1ccc(C=NN2C(=O)c3cccc4cccc(c34)C2=O)cc1 [Compound 8] | >500 | >500 | 289 ± 13 (≈ 842 µM) | – | – | – | – | – | – |
| COc1cc(C=NN2C(=O)c3cccc4cccc(c34)C2=O)ccc1O [Compound 9] | 78.3 ± 1.5 | 108 ± 4.1 | 236 ± 8 (≈ 681 µM) | 3.0 | active | – | 2.2 | good antiviral effect | active |
| COc1ccc(C=NN2C(=O)c3cccc4cccc(c34)C2=O)c(OC)c1 [Compound 10] | 149 ± 5.3 | 416 ± 8.2 | 380 ± 16 (≈ 1050 µM) | 2.6 | active | low activity | 0.9 | low activity | – |
| O=C1c2cccc3cccc(c23)C(=O)N1N=Cc1ccc(Cl)cc1Cl [Compound 11] | >500 | >500 | 316 ± 24 (≈ 856 µM) | – | – | – | – | – | – |
| O=C1c2cccc3cccc(c23)C(=O)N1N=Cc1cccnc1 [Compound 13] | 117.2 ± 3.1 | 308 ± 7.1 | 458 ± 27 (≈ 1520 µM) | 3.9 | active | low activity | 1.5 | – | – |
| O=C1c2cccc3cccc(c23)C(=O)N1N=Cc1ccco1 [Compound 14] | 19.6 ± 0.9 | 71.8 ± 1.8 | 321 ± 23 (≈ 1110 µM) | 16.4 | – | – | 4.5 | most active; also recorded: highest effects | active |
| O=C1c2cccc3cccc(c23)C(=O)N1N=Cc1ccsc1 [Compound 15] | 16.2 ± 1.1 | 56.7 ± 2.6 | 180 ± 8 (≈ 588 µM) | 11.1 | – | – | 3.2 | most active; also recorded: highest effects | active |
| C=CCNC(=S)NN1C(=O)c2cccc3cccc(c23)C1=O [Compound 16] | 17.8 ± 1.4 | 292 ± 4.8 | 96 ± 12 (≈ 308 µM) | 5.4 | active | – | 0.3 | highest effects | – |
| O=C1c2cccc3cccc(c23)C(=O)N1NC(=S)Nc1ccccc1 [Compound 17] | 236 ± 4.9 | >500 | 518 ± 34 (≈ 1490 µM) | 2.2 | active | – | – | low activity | – |
| O=C1c2cccc3cccc(c23)C(=O)N1NC(=S)NC1CCCCC1 [Compound 18] | 319 ± 3.7 | >500 | 482 ± 14 (≈ 1360 µM) | 1.5 | – | – | – | low activity | – |
| O=C1CCC(=O)N1N1C(=O)c2cccc3cccc(c23)C1=O [Compound 19] | >500 | >500 | 220 ± 16 (≈ 748 µM) | – | – | – | – | – | – |
| O=C1C=CC(=O)N1N1C(=O)c2cccc3cccc(c23)C1=O [Compound 20] | >500 | >500 | 220 ± 16 (≈ 753 µM) | – | – | – | – | – | – |
| O=C1c2ccccc2C(=O)N1N1C(=O)c2cccc3cccc(c23)C1=O [Compound 21] | 102 ± 5.8 | 374 ± 3.7 | 490 ± 21 (≈ 1430 µM) | 4.8 | – | low activity | 1.3 | good antiviral effect | – |
| O=C1c2cccc3cccc(c23)C(=O)N1N1C(=O)c2cccc3cccc(c23)C1=O [Compound 22] | 74.6 ± 3.4 | 428 ± 10.2 | 560 ± 46 (≈ 1430 µM) | 7.5 | – | – | 1.3 | good antiviral effect | – |
| O=C1c2cccc3cccc(c23)C(=O)N1n1c(=O)c2cc3c(=O)oc(=O)c3cc2c1=O [Compound 23] | 176 ± 2.4 | >500 | 412 ± 18 (≈ 999 µM) | 2.3 | – | – | – | low activity | – |
| O=C1c2cccc3cccc(c23)C(=O)N1n1c(=O)c2cc3c(=O)n(N4C(=O)c5cccc6cccc(c56)C4=O)c(=O)c3cc2c1=O [Compound 24] | >500 | >500 | 386 ± 17 (≈ 636 µM) | – | – | – | – | – | – |
